The numbers were not newly measured in patent EP0920301B1, “THERAPEUTIC OR HYGIENIC COMPOSITIONS WITH CONTROLLED AND PROLONGED RELEASE OF THE ACTIVE PRINCIPLE(S), IN PARTICULAR FOR OPHTHALMIC USE” (priority 1997, dated 1998), which cites them from elsewhere.

In this data set the test system is la plupart des agents infectieux. To be noted: stated threshold, source not given.

With sulfate de gentamicine, the concentration inhibitrice minimale was 4 µg/mL.
